{"source": "paper PMC3378994", "about": "(Bioorganic & medicinal chemistry letters, 2012)", "origin": "cited, not measured here", "biological_target": "DAT (Rattus norvegicus, UniProt P23977)", "sequence (P23977 whole entry)": "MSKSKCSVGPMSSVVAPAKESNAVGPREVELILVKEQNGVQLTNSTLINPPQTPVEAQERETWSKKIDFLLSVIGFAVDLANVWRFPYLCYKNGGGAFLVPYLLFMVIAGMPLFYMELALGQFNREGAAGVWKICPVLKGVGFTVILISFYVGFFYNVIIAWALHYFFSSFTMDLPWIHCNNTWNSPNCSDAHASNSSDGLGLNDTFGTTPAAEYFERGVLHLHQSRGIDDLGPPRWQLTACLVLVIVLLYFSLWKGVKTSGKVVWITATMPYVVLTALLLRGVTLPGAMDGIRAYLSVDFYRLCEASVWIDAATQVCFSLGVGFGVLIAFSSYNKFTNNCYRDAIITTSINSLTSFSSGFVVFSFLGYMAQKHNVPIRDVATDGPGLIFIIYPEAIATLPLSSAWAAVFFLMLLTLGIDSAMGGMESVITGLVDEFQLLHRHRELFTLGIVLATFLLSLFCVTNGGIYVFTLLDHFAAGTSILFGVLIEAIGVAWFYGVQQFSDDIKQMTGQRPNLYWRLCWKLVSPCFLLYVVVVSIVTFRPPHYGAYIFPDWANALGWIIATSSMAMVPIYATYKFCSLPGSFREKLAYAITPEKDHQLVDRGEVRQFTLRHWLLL"}
{"smiles": "Cc1ccc([C@H]2C[C@@H]3CC[C@H]([C@H]2C(=O)OCC[18F])N3C/C=C/I)cc1", "note": "[[^18F]FE-PE2I]", "values": [{"measurement": "Fold lower affinity to other monoamine transporters than to DAT", "value": "more than 50 fold"}]}
